According to the NIST ThermoML archive (doi:10.1016/j.fluid.2015.03.015):
Numbers after ± are expanded uncertainties.

Assay: refractive index (other wavelength) (dimensionless); xn = mol fraction of the nth substance listed

SMILES: CCCC(C)O (centres undefined) [pentan-2-ol] + CCCCCCCC[n+]1ccn(C)c1.F[B-](F)(F)F
- refractive index (294.64 K, Liquid mixture 2, Wavelength=623.8 nm, Minimum deviation, x2 = 0.168): 1.4134 ± 0.0004
- refractive index (294.68 K, Liquid mixture 1, Wavelength=623.8 nm, Minimum deviation, x2 = 0.065): 1.4084 ± 0.0003
- refractive index (294.68 K, Liquid mixture 2, Wavelength=623.8 nm, Minimum deviation, x2 = 0.166): 1.4133 ± 0.0004
- refractive index (294.73 K, Liquid mixture 1, Wavelength=623.8 nm, Minimum deviation, x2 = 0.067): 1.4085 ± 0.0004
- refractive index (294.73 K, Liquid mixture 2, Wavelength=623.8 nm, Minimum deviation, x2 = 0.162): 1.4131 ± 0.0003
- refractive index (294.77 K, Liquid mixture 1, Wavelength=623.8 nm, Minimum deviation, x2 = 0.069): 1.4086 ± 0.0004
- refractive index (294.77 K, Liquid mixture 2, Wavelength=623.8 nm, Minimum deviation, x2 = 0.157): 1.4129 ± 0.0003
- refractive index (294.8 K, Liquid mixture 1, Wavelength=623.8 nm, Minimum deviation, x2 = 0.071): 1.4087 ± 0.0004
- refractive index (294.8 K, Liquid mixture 2, Wavelength=623.8 nm, Minimum deviation, x2 = 0.153): 1.4127 ± 0.0003
- refractive index (294.83 K, Liquid mixture 1, Wavelength=623.8 nm, Minimum deviation, x2 = 0.073): 1.4088 ± 0.0004
- refractive index (294.83 K, Liquid mixture 2, Wavelength=623.8 nm, Minimum deviation, x2 = 0.149): 1.4125 ± 0.0003
- refractive index (294.87 K, Liquid mixture 1, Wavelength=623.8 nm, Minimum deviation, x2 = 0.077): 1.409 ± 0.0004
- refractive index (294.87 K, Liquid mixture 2, Wavelength=623.8 nm, Minimum deviation, x2 = 0.145): 1.4123 ± 0.0004
- refractive index (294.88 K, Liquid mixture 1, Wavelength=623.8 nm, Minimum deviation, x2 = 0.079): 1.4091 ± 0.0004
- refractive index (294.88 K, Liquid mixture 2, Wavelength=623.8 nm, Minimum deviation, x2 = 0.143): 1.4122 ± 0.0004
- refractive index (294.89 K, Liquid mixture 1, Wavelength=623.8 nm, Minimum deviation, x2 = 0.083): 1.4093 ± 0.0004
- refractive index (294.89 K, Liquid mixture 2, Wavelength=623.8 nm, Minimum deviation, x2 = 0.141): 1.4121 ± 0.0003
- refractive index (294.9 K, Liquid mixture 1, Wavelength=623.8 nm, Minimum deviation, x2 = 0.085): 1.4094 ± 0.0003
- refractive index (294.9 K, Liquid mixture 2, Wavelength=623.8 nm, Minimum deviation, x2 = 0.139): 1.412 ± 0.0003
- refractive index (294.91 K, Liquid mixture 1, Wavelength=623.8 nm, Minimum deviation, x2 = 0.085): 1.4094 ± 0.0003
- refractive index (294.91 K, Liquid mixture 1, Wavelength=623.8 nm, Minimum deviation, x2 = 0.087): 1.4095 ± 0.0004
- refractive index (294.91 K, Liquid mixture 2, Wavelength=623.8 nm, Minimum deviation, x2 = 0.132): 1.4117 ± 0.0003
- refractive index (294.91 K, Liquid mixture 2, Wavelength=623.8 nm, Minimum deviation, x2 = 0.134): 1.4118 ± 0.0003
- refractive index (294.92 K, Liquid mixture 1, Wavelength=623.8 nm, Minimum deviation, x2 = 0.088): 1.4095 ± 0.0004
- refractive index (294.92 K, Liquid mixture 1, Wavelength=623.8 nm, Minimum deviation, x2 = 0.09): 1.4096 ± 0.0004
- refractive index (294.92 K, Liquid mixture 2, Wavelength=623.8 nm, Minimum deviation, x2 = 0.128): 1.4115 ± 0.0004
- refractive index (294.92 K, Liquid mixture 2, Wavelength=623.8 nm, Minimum deviation, x2 = 0.13): 1.4116 ± 0.0004
- refractive index (294.93 K, Liquid mixture 1, Wavelength=623.8 nm, Minimum deviation, x2 = 0.091): 1.4097 ± 0.0004
- refractive index (294.93 K, Liquid mixture 1, Wavelength=623.8 nm, Minimum deviation, x2 = 0.093): 1.4098 ± 0.0003
- refractive index (294.93 K, Liquid mixture 1, Wavelength=623.8 nm, Minimum deviation, x2 = 0.097): 1.41 ± 0.0004
- refractive index (294.93 K, Liquid mixture 1, Wavelength=623.8 nm, Minimum deviation, x2 = 0.099): 1.4101 ± 0.0005
- refractive index (294.93 K, Liquid mixture 2, Wavelength=623.8 nm, Minimum deviation, x2 = 0.118): 1.411 ± 0.0004
- refractive index (294.93 K, Liquid mixture 2, Wavelength=623.8 nm, Minimum deviation, x2 = 0.122): 1.4112 ± 0.0004
- refractive index (294.93 K, Liquid mixture 2, Wavelength=623.8 nm, Minimum deviation, x2 = 0.124): 1.4113 ± 0.0004
- refractive index (294.93 K, Liquid mixture 2, Wavelength=623.8 nm, Minimum deviation, x2 = 0.126): 1.4114 ± 0.0004
- refractive index (294.98 K, 85 kPa, Liquid, Wavelength=632.8 nm, Minimum Deviation, x2 = 0.798): 1.4299 ± 0.0003
- refractive index (294.98 K, 85 kPa, Liquid, Wavelength=632.8 nm, Minimum Deviation, x2 = 0.899): 1.4314 ± 0.0003
- refractive index (295.13 K, 85 kPa, Liquid, Wavelength=632.8 nm, Minimum Deviation, x2 = 0.7): 1.4281 ± 0.0003
- refractive index (295.53 K, 85 kPa, Liquid, Wavelength=632.8 nm, Minimum Deviation, x2 = 0.099): 1.4101 ± 0.0003
- refractive index (295.95 K, 85 kPa, Liquid, Wavelength=632.8 nm, Minimum Deviation, x2 = 0.4): 1.4213 ± 0.0003
- refractive index (296.02 K, 85 kPa, Liquid, Wavelength=632.8 nm, Minimum Deviation, x2 = 0.3): 1.4182 ± 0.0003
- refractive index (296.02 K, 85 kPa, Liquid, Wavelength=632.8 nm, Minimum Deviation, x2 = 0.599): 1.426 ± 0.0003
- refractive index (296.13 K, 85 kPa, Liquid, Wavelength=632.8 nm, Minimum Deviation, x2 = 0.5): 1.4238 ± 0.0003
- refractive index (297.03 K, 85 kPa, Liquid, Wavelength=632.8 nm, Minimum Deviation, x2 = 0.798): 1.4293 ± 0.0003
- refractive index (297.03 K, 85 kPa, Liquid, Wavelength=632.8 nm, Minimum Deviation, x2 = 0.899): 1.4308 ± 0.0003
- refractive index (297.19 K, 85 kPa, Liquid, Wavelength=632.8 nm, Minimum Deviation, x2 = 0.7): 1.4275 ± 0.0003
- refractive index (297.57 K, 85 kPa, Liquid, Wavelength=632.8 nm, Minimum Deviation, x2 = 0.3): 1.4177 ± 0.0003
- refractive index (297.68 K, 85 kPa, Liquid, Wavelength=632.8 nm, Minimum Deviation, x2 = 0.5): 1.4233 ± 0.0003
- refractive index (297.86 K, 85 kPa, Liquid, Wavelength=632.8 nm, Minimum Deviation, x2 = 0.099): 1.4092 ± 0.0003
- refractive index (298.01 K, 85 kPa, Liquid, Wavelength=632.8 nm, Minimum Deviation, x2 = 0.4): 1.4207 ± 0.0003
- refractive index (299.09 K, 85 kPa, Liquid, Wavelength=632.8 nm, Minimum Deviation, x2 = 0.3): 1.4172 ± 0.0003
- refractive index (299.11 K, 85 kPa, Liquid, Wavelength=632.8 nm, Minimum Deviation, x2 = 0.798): 1.4287 ± 0.0003
- refractive index (299.11 K, 85 kPa, Liquid, Wavelength=632.8 nm, Minimum Deviation, x2 = 0.899): 1.4303 ± 0.0003
- refractive index (299.22 K, 85 kPa, Liquid, Wavelength=632.8 nm, Minimum Deviation, x2 = 0.2): 1.4133 ± 0.0003
- refractive index (299.22 K, 85 kPa, Liquid, Wavelength=632.8 nm, Minimum Deviation, x2 = 0.7): 1.4269 ± 0.0003
- refractive index (299.24 K, 85 kPa, Liquid, Wavelength=632.8 nm, Minimum Deviation, x2 = 0.5): 1.4229 ± 0.0003
- refractive index (299.91 K, 85 kPa, Liquid, Wavelength=632.8 nm, Minimum Deviation, x2 = 0.099): 1.4085 ± 0.0003
- refractive index (300.06 K, 85 kPa, Liquid, Wavelength=632.8 nm, Minimum Deviation, x2 = 0.4): 1.4201 ± 0.0003
- refractive index (300.66 K, 85 kPa, Liquid, Wavelength=632.8 nm, Minimum Deviation, x2 = 0.3): 1.4167 ± 0.0003
- refractive index (300.8 K, 85 kPa, Liquid, Wavelength=632.8 nm, Minimum Deviation, x2 = 0.2): 1.4128 ± 0.0003
- refractive index (300.8 K, 85 kPa, Liquid, Wavelength=632.8 nm, Minimum Deviation, x2 = 0.5): 1.4224 ± 0.0003
- refractive index (302 K, 85 kPa, Liquid, Wavelength=632.8 nm, Minimum Deviation, x2 = 0.099): 1.4077 ± 0.0003
- refractive index (302.14 K, 85 kPa, Liquid, Wavelength=632.8 nm, Minimum Deviation, x2 = 0.4): 1.4194 ± 0.0003
- refractive index (302.24 K, 85 kPa, Liquid, Wavelength=632.8 nm, Minimum Deviation, x2 = 0.3): 1.4162 ± 0.0003
- refractive index (302.34 K, 85 kPa, Liquid, Wavelength=632.8 nm, Minimum Deviation, x2 = 0.5): 1.4219 ± 0.0003
- refractive index (302.35 K, 85 kPa, Liquid, Wavelength=632.8 nm, Minimum Deviation, x2 = 0.2): 1.4122 ± 0.0003
- refractive index (303.8 K, 85 kPa, Liquid, Wavelength=632.8 nm, Minimum Deviation, x2 = 0.3): 1.4156 ± 0.0003
- refractive index (303.88 K, 85 kPa, Liquid, Wavelength=632.8 nm, Minimum Deviation, x2 = 0.2): 1.4117 ± 0.0003
- refractive index (304.07 K, 85 kPa, Liquid, Wavelength=632.8 nm, Minimum Deviation, x2 = 0.099): 1.4069 ± 0.0003
- refractive index (304.17 K, 85 kPa, Liquid, Wavelength=632.8 nm, Minimum Deviation, x2 = 0.4): 1.4187 ± 0.0003
- refractive index (304.17 K, 85 kPa, Liquid, Wavelength=632.8 nm, Minimum Deviation, x2 = 0.5): 1.4213 ± 0.0003
- refractive index (305.44 K, 85 kPa, Liquid, Wavelength=632.8 nm, Minimum Deviation, x2 = 0.2): 1.4111 ± 0.0003
- refractive index (306.2 K, 85 kPa, Liquid, Wavelength=632.8 nm, Minimum Deviation, x2 = 0.099): 1.4061 ± 0.0003
- refractive index (307.01 K, 85 kPa, Liquid, Wavelength=632.8 nm, Minimum Deviation, x2 = 0.2): 1.4105 ± 0.0003
